How the values were obtained:
[1] = molecular target: T1, Furin (108-574-Tev-Flag-His) enzyme (Homo sapiens, UniProt P09958); experiment: Furin enzyme assay; assay type: biochemical; settings: for IC50: read-out: furin enzyme pIC50 (converted)
T1 construct: Furin (108-574-Tev-Flag-His) enzyme was expressed and purified from CHO cells; TEV cleavage site (C); FLAG (C); His (C); made in house; host or cells: CHO cells
In short: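 CHO-expressed, purified furin construct at 40 pM in 100 mM HEPES pH7.5, 1 mM CaCl2, 0.005% Triton X-100. Eleven-point 1:3 series, 0.00017–10 μM final, incubated 2 h at room temperature and read on Envision. pXC50 from four-parameter fit.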

[2] = molecular target: T2, furin (endogenous protease) in U20S cells (Homo sapiens, UniProt P09958); experiment: Furin cell-based assay (image-based, Golgi-targeted GFP with BMP10 furin/PCSK cleavage site); settings: 24-hour incubation, read-out: furin golgi cell pXC50 (converted);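 also: Read-out is mean GFP fluorescence of Golgi puncta per cell by high-content imaging, retained when furin inhibited, over an eleven-point 0.00017–10 µM series, four-parameter fit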
T2 construct: the endogenous protease cleaves GFP; endogenous in cells; host or cells: U2OS cells transduced with a BacMam reporter
T2 sequence (P09958 108-794): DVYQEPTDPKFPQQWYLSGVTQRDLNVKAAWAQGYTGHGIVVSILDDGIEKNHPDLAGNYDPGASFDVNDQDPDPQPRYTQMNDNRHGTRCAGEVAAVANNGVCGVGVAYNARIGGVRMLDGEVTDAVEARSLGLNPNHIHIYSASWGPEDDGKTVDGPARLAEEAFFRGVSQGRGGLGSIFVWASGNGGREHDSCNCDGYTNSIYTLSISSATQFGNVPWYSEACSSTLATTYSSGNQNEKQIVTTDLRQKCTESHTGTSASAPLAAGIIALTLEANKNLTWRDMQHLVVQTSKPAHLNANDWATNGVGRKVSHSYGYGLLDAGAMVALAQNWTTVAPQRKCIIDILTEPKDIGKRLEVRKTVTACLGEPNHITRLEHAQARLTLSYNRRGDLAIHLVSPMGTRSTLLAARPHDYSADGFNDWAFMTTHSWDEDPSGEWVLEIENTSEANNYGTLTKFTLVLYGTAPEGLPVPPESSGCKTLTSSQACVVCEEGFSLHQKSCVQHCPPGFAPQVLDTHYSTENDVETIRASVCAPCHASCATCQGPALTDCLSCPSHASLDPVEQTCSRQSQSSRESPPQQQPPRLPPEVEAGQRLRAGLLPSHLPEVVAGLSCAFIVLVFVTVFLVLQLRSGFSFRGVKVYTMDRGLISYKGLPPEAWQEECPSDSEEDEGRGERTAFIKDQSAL
Protocol: This assay uses an image-based platform to evaluate the intracellular activity of compounds of the invention. Reactions were performed in black 384-well, tissue culture-treated, clear bottom plates (Greiner). Compounds under analysis were dissolved in DMSO (1.0 mM) and serially diluted 1 to 3 with DMSO through eleven dilutions. This creates a final compound concentration range from 0.00017 to 10 μM, and 0.1 μL of each concentration was transferred to the corresponding well of the assay plate. Assays were initiated by the addition of U20S cells simultaneously transduced with a BacMam-delivered construct containing a Golgi-targeting sequence followed by a 12-amino acid furin/PCSK cleavage site from Bone Morphogenic Protein 10 (BMP10) and then GFP at the C terminus. […] Briefly, frozen cells are thawed in assay media (Dulbecco's Modified Eagles Medium Nutritional Mixture F-12 (Ham) without phenol red containing 5% FBS) and diluted to deliver 6000 cells/well (50 μL) to the plate using a Multidrop Combi (Thermo).
After a 24-hour incubation period at 37° C., the cells are stained with Cell Mask Deep Red, fixed in paraformaldehyde and the nuclei stained using Ho33342. The Golgi-targeted GFP forms bright punctate clusters within the cell. In the absence of a furin inhibitor, the endogenous protease cleaves GFP from its N-acetylgalactosaminyltransferase-2 Golgi tether, releasing GFP into the Golgi lumen where fluorescence is diluted below the threshold of assay sensitivity. […] Cellular GFP intensity is determined by image-based acquisition (Incell 2200, Perkin Elmer) at 40× magnification with 4 fields measured per well. Multi-scale tophat segmentation is used to identify the GFP-tagged puncta and to quantitate the average fluorescence of all puncta on a per cell basis. Cellular toxicity is determined in parallel.
Data were analyzed using AbaseXE 7.3, utilizing a four-parameter curve fit equation. The following values were used to define limits and/or constraints for each of the four parameters: • Minimum—limit −10 to 10 • Maximum—90 to 110 • Slope—limit 0.5 to 2.0 • pXC50 confidence interval—10
Raw counts obtained from the respective plate reader (Perkin Elmer) were captured for data analysis. Curves were generated using the equation: Y=A+[(B−A)/(1+(10^C/x)^D)] • where: A=minimum response • B=maximum response • C=log 10*XC50 • D=slope factor • x=log 10 compound concentration [M]
The results were recorded as pXC50 values (−C in the above equation)

T1 sequence (P09958 108-574): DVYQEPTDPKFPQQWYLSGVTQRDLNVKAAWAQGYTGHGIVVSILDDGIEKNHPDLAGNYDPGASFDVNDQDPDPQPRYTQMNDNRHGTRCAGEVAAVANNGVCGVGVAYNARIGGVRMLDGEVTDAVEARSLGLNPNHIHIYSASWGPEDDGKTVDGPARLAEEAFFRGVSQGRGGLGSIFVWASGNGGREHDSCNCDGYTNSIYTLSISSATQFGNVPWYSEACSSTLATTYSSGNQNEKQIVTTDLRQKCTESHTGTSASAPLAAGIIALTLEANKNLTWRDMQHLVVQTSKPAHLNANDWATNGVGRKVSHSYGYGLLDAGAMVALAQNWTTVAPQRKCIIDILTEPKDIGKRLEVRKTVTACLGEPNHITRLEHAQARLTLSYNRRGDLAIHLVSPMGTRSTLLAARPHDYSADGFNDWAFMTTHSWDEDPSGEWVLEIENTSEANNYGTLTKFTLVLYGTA

| SMILES | furin enzyme pIC50 [1] | EC50 [2] [nM] | IC50 [1] [nM] |
| --- | --- | --- | --- |
| COCCN1CCN(c2ccc(Oc3cc(CN4CCC(CC(=O)O)CC4)cc(-c4cc(Cl)cc(Cl)c4)n3)cn2)CC1 [Example 244, 2-(1-((2-(3,5-dichlorophenyl)-6-((6-(4-(2-methoxyethyl)piperazin-1-yl)pyridin-3-yl)oxy)pyridin-4-yl)methyl)piperidin-4-yl)acetic acid] | 8.3 | 20 |  |
| COCCN1CCN(c2ncc(Oc3cc(CN4CCC(CNC(C)=O)CC4)cc(-c4cc(Cl)cc(Cl)c4)n3)cn2)CC1 [Example 245, N-((1-((2-(3,5-dichlorophenyl)-6-((2-(4-(2-methoxyethyl)piperazin-1-yl)pyrimidin-5-yl)oxy)pyridin-4-yl)methyl)piperidin-4-yl)methyl)acetamide] | 10 | 3.98 |  |
| NS(=O)(=O)CCCN1CCN(c2ncc(Oc3cc(CN4CCC(CC(=O)O)CC4)cc(-c4cc(Cl)cc(Cl)c4)n3)cn2)CC1 [Example 246, 2-(1-((2-(3,5-dichlorophenyl)-6-((2-(4-(3-sulfamoylpropyl)piperazin-1-yl)pyrimidin-5-yl)oxy)pyridin-4-yl)methyl)piperidin-4-yl)acetic acid] | 8.9 | 15.8 |  |
| COCCN1CCN(c2ncc(Oc3cc(CN4CCC(CC(=O)O)CC4)cc(-c4cc(Cl)cc(Cl)c4)n3)cn2)CC1 [Example 247, 2-(1-((2-(3,5-dichlorophenyl)-6-((2-(4-(2-methoxyethyl)piperazin-1-yl)pyrimidin-5-yl)oxy)pyridin-4-yl)methyl)piperidin-4-yl)acetic acid] | 8.5 | 31.6 |  |
| CNC(=O)OCC1CCN(Cc2cc(Oc3cnc(N4CCN(CCC(=O)O)CC4)nc3)nc(-c3cc(Cl)cc(Cl)c3)c2)CC1 [Example 248, 3-(4-(5-((6-(3,5-dichlorophenyl)-4-((4-(((methylcarbamoyl)oxy)methyl)piperidin-1-yl)methyl)pyridin-2-yl)oxy)pyrimidin-2-yl)piperazin-1-yl)propanoic acid] |  | 25.1 | 0.0316 |
| CC(=O)NCC1CCN(Cc2cc(Oc3ccc(N4CCN(CCCC(=O)O)CC4)nc3)nc(-c3cc(Cl)cc(Cl)c3)c2)CC1 [Example 249, 4-(4-(5-((4-((4-(acetamidomethyl)piperidin-1-yl)methyl)-6-(3,5-dichlorophenyl)pyridin-2-yl)oxy)pyridin-2-yl)piperazin-1-yl)butanoic acid] | 9.1 | 12.6 |  |
| COCCN1CCN(c2ccc(Oc3cc(CN4CCC(CNC(C)=O)CC4)cc(-c4cc(Cl)cc(Cl)c4)n3)cn2)CC1 [Example 250, N-((1-((2-(3,5-dichlorophenyl)-6-((6-(4-(2-methoxyethyl)piperazin-1-yl)pyridin-3-yl)oxy)pyridin-4-yl)methyl)piperidin-4-yl)methyl)acetamide] | 8.9 | < 0.794 |  |
| CC(=O)NCC1CCN(Cc2cc(Oc3ccc(N4CCN(CCCS(C)(=O)=O)CC4)nc3)nc(-c3cc(Cl)cc(Cl)c3)c2)CC1 [Example 251, N-((1-((2-(3,5-dichlorophenyl)-6-((6-(4-(3-(methylsulfonyl)propyl)piperazin-1-yl)pyridin-3-yl)oxy)pyridin-4-yl)methyl)piperidin-4-yl)methyl)acetamide] |  | 5.01 | < 0.158 |
| NS(=O)(=O)CCCN1CCN(c2ccc(Oc3cc(CN4CCC(CC(=O)O)CC4)cc(-c4cc(Cl)cc(Cl)c4)n3)cn2)CC1 [Example 252, 2-(1-((2-(3,5-dichlorophenyl)-6-((6-(4-(3-sulfamoylpropyl)piperazin-1-yl)pyridin-3-yl)oxy)pyridin-4-yl)methyl)piperidin-4-yl)acetic acid] | 8.5 | 31.6 |  |
| CC(=O)NCC1CCN(Cc2cc(Oc3cnc(N4CCN(CCCS(N)(=O)=O)CC4)nc3)nc(-c3cc(Cl)cc(Cl)c3)c2)CC1 [Example 253, N-((1-((2-(3,5-dichlorophenyl)-6-((2-(4-(3-sulfamoylpropyl)piperazin-1-yl)pyrimidin-5-yl)oxy)pyridin-4-yl)methyl)piperidin-4-yl)methyl)acetamide] | 9.7 | 2.51 |  |
| CNC(=O)NCC1CCN(Cc2cc(Oc3ccc(N4CCN(CCOC)CC4)nc3)nc(-c3cc(Cl)cc(Cl)c3)c2)CC1 [Example 254, 1-((1-((2-(3,5-dichlorophenyl)-6-((6-(4-(2-methoxyethyl)piperazin-1-yl)pyridin-3-yl)oxy)pyridin-4-yl)methyl)piperidin-4-yl)methyl)-3-methylurea] | 8.7 | 3.16 |  |
| CNC(=O)NCC1CCN(Cc2cc(Oc3ccc(N4CCN(CCCS(C)(=O)=O)CC4)nc3)nc(-c3cc(Cl)cc(Cl)c3)c2)CC1 [Example 255, 1-((1-((2-(3,5-dichlorophenyl)-6-((6-(4-(3-(methylsulfonyl)propyl)piperazin-1-yl)pyridin-3-yl)oxy)pyridin-4-yl)methyl)piperidin-4-yl)methyl)-3-methylurea] | 9.5 | 6.31 |  |
| CNC(=O)NCC1CCN(Cc2cc(Oc3cnc(N4CCN(CCC(=O)O)CC4)nc3)nc(-c3cc(Cl)cc(Cl)c3)c2)CC1 [Example 256, 3-(4-(5-((6-(3,5-dichlorophenyl)-4-((4-((3-methylureido)methyl)piperidin-1-yl)methyl)pyridin-2-yl)oxy)pyrimidin-2-yl)piperazin-1-yl)propanoic acid] | 9.5 | 15.8 |  |
| CNC(=O)NCC1CCN(Cc2cc(Oc3cnc(N4CCN(CCCS(C)(=O)=O)CC4)nc3)nc(-c3cc(Cl)cc(Cl)c3)c2)CC1 [Example 257, 1-((1-((2-(3,5-dichlorophenyl)-6-((2-(4-(3-(methylsulfonyl)propyl)piper-1-yl)pyrimidin-5-yl)oxy)pyridin-4-yl)methyl)piperidin-4-yl)methyl)-3-methylurea] | 10.1 | 5.01 |  |
| CC(=O)NCC1CCN(Cc2cc(Oc3ccc(N4CCN(CCC(=O)O)CC4)nc3)cc(-c3cc(Cl)cc(Cl)c3)c2)CC1 [Example 258, 3-(4-(5-((5-((4-(acetamidomethyl)piperidin-1-yl)methyl)-3′,5′-dichloro-[1,1′-biphenyl]-3-yl)oxy)pyridin-2-yl)piperazin-1-yl)propanoic acid] | 9.6 | 31.6 |  |
| CC(=O)NCC1CCN(Cc2cc(Oc3cnc(N4CCN(CCCS(C)(=O)=O)CC4)nc3)nc(-c3cc(Cl)cc(Cl)c3)c2)CC1 [Example 259, N-((1-((2-(3,5-dichlorophenyl)-6-((2-(4-(3-(methylsulfonyl)propyl)piperazin-1-yl)pyrimidin-5-yl)oxy)pyridin-4-yl)methyl)piperidin-4-yl)methyl)acetamide] | 9.8 | 1.58 |  |
| CNC(=O)NCC1CCN(Cc2cc(Oc3cnc(N4CCN(CCC(N)=O)CC4)nc3)nc(-c3cc(Cl)cc(Cl)c3)c2)CC1 [Example 261, 3-(4-(5-((6-(3,5-dichlorophenyl)-4-((4-((3-methylureido)methyl)piperidin-1-yl)methyl)pyridin-2-yl)oxy)pyrimidin-2-yl)piperazin-1-yl)propanamide] | 9.2 | 10 |  |
| CNC(=O)NCC1CCN(Cc2cc(Oc3cnc(N4CCN(CCOC)CC4)nc3)nc(-c3cc(Cl)cc(Cl)c3)c2)CC1 [Example 262, 1-((1-((2-(3,5-dichlorophenyl)-6-((2-(4-(2-methoxyethyl)piperazin-1-yl)pyrimidin-5-yl)oxy)pyridin-4-yl)methyl)piperidin-4-yl)methyl)-3-methylurea] | 9 | 0.316 |  |
| CS(=O)(=O)CCCN1CCN(c2ccc(Oc3cc(CN4CCC(CC(N)=O)CC4)cc(-c4cc(Cl)cc(Cl)c4)n3)cn2)CC1 [Example 264, 2-(1-((2-(3,5-dichlorophenyl)-6-((6-(4-(3-(methylsulfonyl)propyl)piperazin-1-yl)pyridin-3-yl)oxy)pyridin-4-yl)methyl)piperidin-4-yl)acetamide] | 8.6 | 3.98 |  |
| CNC(=O)NCC1(O)CCN(Cc2cc(Oc3cnc(N4CCN(CCC(N)=O)CC4)nc3)nc(-c3cc(Cl)cc(Cl)c3)c2)CC1 [Example 265, 3-(4-(5-((6-(3,5-dichlorophenyl)-4-((4-hydroxy-4-((3-methylureido)methyl)piperidin-1-yl)methyl)pyridin-2-yl)oxy)pyrimidin-2-yl)piperazin-1-yl)propanamide] | 9.4 | 7.94 |  |
| CC(=O)NCC1CCN(Cc2cc(Oc3cnc(N4CCN(CCC(=O)O)CC4)c(F)c3)nc(-c3cc(Cl)cc(Cl)c3)c2)CC1 [Example 266, 3-(4-(5-((4-((4-(acetamidomethyl)piperidin-1-yl)methyl)-6-(3,5-dichlorophenyl)pyridin-2-yl)oxy)-3-fluoropyridin-2-yl)piperazin-1-yl)propanoic acid] | 8.7 | 50.1 |  |
| CCOC(=O)NCC1CCN(Cc2cc(Oc3cnc(N4CCN(CCC(=O)O)CC4)nc3)nc(-c3cc(Cl)cc(Cl)c3)c2)CC1 [Example 267, 3-(4-(5-((6-(3,5-dichlorophenyl)-4-((4-(((ethoxycarbonyl)amino)methyl)piperidin-1-yl)methyl)pyridin-2-yl)oxy)pyrimidin-2-yl)piperazin-1-yl)propanoic acid] | 9.9 | 50.1 |  |
| CCNC(=O)CC1CCN(Cc2cc(Oc3cnc(N4CCN(CCC(=O)O)CC4)nc3)nc(-c3cc(Cl)cc(Cl)c3)c2)CC1 [Example 268, 3-(4-(5-((6-(3,5-dichlorophenyl)-4-((4-(2-(ethylamino)-2-oxoethyl)piperidin-1-yl)methyl)pyridin-2-yl)oxy)pyrimidin-2-yl)piperazin-1-yl)propanoic acid] | 9.1 | 63.1 |  |
